Where a SMILES comes first, the peptide text is derived from it.
Test system: drug-resistant Mycobacterium tuberculosis
Details: 5 micrograms per ml

## CC(C)C[C@H](NC(=O)CNC(=O)[C@H](CCC(=O)O)NC(=O)CNC(=O)[C@H](C)N)C(=O)N[C@@H](CC(N)=O)C(=O)N[C@@H](CO)C(=O)N[C@@H](CCC(N)=O)C(=O)N[C@@H](Cc1ccccc1)C(=O)N[C@@H](Cc1c[nH]c2ccccc12)C(=O)N[C@@H](CO)C(=O)N[C@@H](CC(C)C)C(=O)N[C@@H](C)C(=O)N[C@@H](C)C(=O)N1CCC[C@H]1C(=O)N[C@@H](CCC(N)=O)C(=O)N[C@@H](CCCNC(=N)N)C(=O)N[C@@H](Cc1ccccc1)C(N)=O [Neuropeptide AF, Ala-Gly-Glu-Gly-Leu-Asn-Ser-Gln-Phe-Trp-Ser-Leu-Ala-Ala-Pro-Gln-Arg-Phe-NH2] (H-AGEGLNSQFWSLAAPQRF-NH2)
  % inhibition: 0.0%
